Measurements reported in patent US5326787A, “Cycloalkyl N-hydroxy derivatives having lipoxygenase inhibitory activity” (Abbott Laboratories, priority 1993, dated 1994).

Legend:
5-Lipoxygenase = molecular target: T1, 5-Lipoxygenase (Homo sapiens, UniProt P09917); test: Calcium ionophore-induced LTB4 biosynthesis in human whole blood; type: cell-based; settings: human heparinized whole blood, 15 min preincubation at 37° C., A23187 8.3 μM, 30 min, LTB4 by radioimmunoassay; read-out: IC50 against 5-Lipoxygenase from Stimulated LTB4 Formation in Human Whole Blood
T1 construct: from tissue; host or cells: human heparinized whole blood (endogenous enzyme of the blood leukocytes)
T1 sequence (P09917 1-674): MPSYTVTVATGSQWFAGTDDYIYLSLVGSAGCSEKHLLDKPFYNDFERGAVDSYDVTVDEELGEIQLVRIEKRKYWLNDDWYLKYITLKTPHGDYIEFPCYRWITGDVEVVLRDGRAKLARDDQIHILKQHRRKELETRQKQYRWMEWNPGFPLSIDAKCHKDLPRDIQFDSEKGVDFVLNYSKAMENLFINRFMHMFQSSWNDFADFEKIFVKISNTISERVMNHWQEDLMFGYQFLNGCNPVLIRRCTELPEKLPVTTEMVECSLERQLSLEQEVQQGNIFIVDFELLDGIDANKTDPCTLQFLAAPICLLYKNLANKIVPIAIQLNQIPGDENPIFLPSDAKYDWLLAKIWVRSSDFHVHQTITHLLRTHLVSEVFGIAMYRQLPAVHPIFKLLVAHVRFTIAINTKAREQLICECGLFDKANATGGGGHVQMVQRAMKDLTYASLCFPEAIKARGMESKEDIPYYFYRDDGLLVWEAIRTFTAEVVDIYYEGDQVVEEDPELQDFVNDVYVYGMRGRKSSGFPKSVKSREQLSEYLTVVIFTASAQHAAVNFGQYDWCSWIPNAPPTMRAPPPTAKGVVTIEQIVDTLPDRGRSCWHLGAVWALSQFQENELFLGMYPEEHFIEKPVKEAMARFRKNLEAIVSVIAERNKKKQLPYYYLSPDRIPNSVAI
Experimental: Inhibition of leukotriene biosynthesis was evaluated in an assay, involving calcium ionophore-induced LTB4 biosynthesis expressed human whole blood. […] The methanol extract was analyzed for LTB4 using a commercially available radioimmunoassay.

[1] = test system: biosynthesis of leukotrienes; test: Inhibition of leukotriene biosynthesis in vivo after oral administration, rat peritoneal anaphylaxis model; settings: percent inhibition vs mean of control group, oral gavage 100 μmoles/kg one hour prior to antigen challenge, peritoneal fluids 15 minutes after challenge
Experimental: Inhibition of the biosynthesis of leukotrienes in vivo after oral administration of compound was determined using a rat peritoneal anaphylaxis model in a similar manner as that described by Young and coworkers (Young, P. R.; Dyer, R. D.; Carter, G. W. Fed. Proc., Fed. Am. Soc. Exp. Biol. 1985, 44, 1185). In this model rats were injected intraperitoneally (ip) with rabbit antibody to bovine serum albumin (BSA) and three hours later injected ip with BSA to induce an antigen-antibody response. Rats were sacrificed 15 minutes after this challenge and the peritoneal fluids were collected and analyzed for leukotriene levels. Test compounds were administered by gavage one hour prior to the antigen challenge. Percent inhibition values were determined by comparing the treatment group to the mean of the control group.

| SMILES | IC50 (5-Lipoxygenase) [nM] | inhibition at 100 µmol/kg [1] [%] |
| --- | --- | --- |
| NC(=O)N(O)CC1CCCCCC1 [Example 5, N-hydroxy-N-1-(1-cycloheptyl)methylurea] | < 1500 | – |
| NC(=O)N(O)CC1CCCCC1 [Example 4, N-hydroxy-N-1-(1-cyclohexyl)methylurea] | 1100 | 64 |
| NC(=O)N(O)C[C@H]1C[C@@H]1C1CC1 (relative stereo) [Example 1, N-1-(trans-2-cyclopropylcyclopropylmethyl)-N-hydroxyurea] | < 300 | 96 |
| NC(=O)N(O)CC1CCC1 [Example 2, N-cyclobutylmethyl-N-hydroxyurea] | 900 | 92 |
| NC(=O)N(O)CC1CCCC1 [Example 3, N-cyclopentylmethyl-N-hydroxyurea] | 700 | 83 |
